Counter-ions that a name gives are not always drawn. Like-named read-outs stand apart in the source and are kept apart here.
How the values were obtained:
[1] = biological target: human RORγt ligand binding domain (RORγt LBD) (Homo sapiens (Human), UniProt P51449); assay: RORγt ThermoFluor® assay (thermal shift binding)
Experimental: This approach is applicable to a wide variety of systems, and rigorous in theoretical interpretation through quantitation of equilibrium binding constants (KD).
The shift in the melting point described as a ΔTm is proportional to the concentration and affinity of the ligand.
RORγt ThermoFluor® Assay Construct
Reference wells contained RORγt without compounds, and the assay conditions were as follows: • 0.065 mg/mL RORγt • 60 μM 1,8-ANS • 100 mM Hepes, pH 7.0 • 10 mM NaCl • 2.5 mM GSH • 0.002% Tween-20
Project compounds were arranged in a pre-dosed mother plate (Greiner Bio-one) wherein compounds are serially diluted in 100% DMSO by 1:2 from a high concentration of 10 mM over 12 columns within a series (column 12 is a reference well containing DMSO, no compound). The compounds were robotically dispensed directly into assay plates (1×=46 nL) using a Hummingbird capillary liquid handling instrument (Digilab). Following compound dispense, protein and dye in buffer was added to achieve the final assay volume of 3 μL, followed by 1 μL of silicone oil.

full-length human RORγt = full-length human RORγt (Homo sapiens (Human), UniProt P51449); assay: RORγt (full-length human) reporter assay, conditions A or B, HEK293T cells; assay type: cell-based; settings: for inhibition at 6 µM / inhibition at 2 µM / inhibition at 0.67 µM / inhibition at 3 µM / inhibition at […]: HEK-293T; for inhibition at 6 µM: read-out: RORγt (FL) Reporter Assay A or B, % inhibition @ 6 μM; for IC50: RORγt (FL) Reporter Assay A or B, IC50, HEK293T cells; for inhibition at 2 µM / inhibition at 0.67 µM / inhibition at 3 µM / inhibition at […]: read-out: RORγt (FL) Reporter Assay A or B, % inhibition; for inhibition at 0.67 µM: 0.67 μM compound concentration (footnote ****); for inhibition at 3 µM: 3 μM compound concentration (footnote *); for inhibition at […]: 0.22 μM compound concentration (footnote *******)
Chain of full-length human RORγt (P51449 other isoform, or with tags, fused parts or gaps): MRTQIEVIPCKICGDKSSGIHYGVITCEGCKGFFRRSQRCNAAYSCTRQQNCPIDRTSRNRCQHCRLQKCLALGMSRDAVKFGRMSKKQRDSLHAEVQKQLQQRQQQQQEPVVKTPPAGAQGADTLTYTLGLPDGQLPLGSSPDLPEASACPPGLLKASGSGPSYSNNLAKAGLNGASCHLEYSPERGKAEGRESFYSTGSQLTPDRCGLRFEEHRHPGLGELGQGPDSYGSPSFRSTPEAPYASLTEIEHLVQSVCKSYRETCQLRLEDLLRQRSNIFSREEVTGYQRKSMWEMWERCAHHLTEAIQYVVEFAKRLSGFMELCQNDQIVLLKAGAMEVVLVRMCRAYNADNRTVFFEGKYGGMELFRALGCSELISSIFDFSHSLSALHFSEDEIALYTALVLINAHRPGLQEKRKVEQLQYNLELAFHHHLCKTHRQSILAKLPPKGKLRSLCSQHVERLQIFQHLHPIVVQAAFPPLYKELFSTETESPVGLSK
How it was run: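 Dual-luciferase read-out was taken after an overnight (16–20 h) compound exposure. Firefly data were scaled between DMSO-only and saturating reference compound, Renilla-normalized, then plotted against concentration for IC50.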

[2] = read-out: ThermoFluor® Assay, Kd

Chain of human RORγt ligand binding domain (RORγt LBD) (P51449 other isoform, or with tags, fused parts or gaps): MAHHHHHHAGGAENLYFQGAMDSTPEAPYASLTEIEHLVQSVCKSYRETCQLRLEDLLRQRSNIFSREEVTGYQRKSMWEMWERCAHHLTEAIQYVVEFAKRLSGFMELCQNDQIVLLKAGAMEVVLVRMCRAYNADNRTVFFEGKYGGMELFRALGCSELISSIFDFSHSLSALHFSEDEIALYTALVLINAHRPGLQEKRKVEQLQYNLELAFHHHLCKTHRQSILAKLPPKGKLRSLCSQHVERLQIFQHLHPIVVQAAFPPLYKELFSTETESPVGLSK

| SMILES | Kd [1, 2] [nM] | IC50 (full-length human RORγt) [nM] | further results |
| --- | --- | --- | --- |
| COc1cc(N[C@H](C)C(F)(F)F)ccc1-c1c(Cl)c(C(=O)NC[C@H]2CC[C@H](S(C)(=O)=O)CC2)nn1CC(C)(C)O [Example 202, 4-Chloro-1-(2-hydroxy-2-methylpropyl)-5-(2-methoxy-4-(((R)-1,1,1-trifluoropropan-2-yl)amino)phenyl)-N-(((r,4R)-4-(methylsulfonyl)cyclohexyl)methyl)-1H-pyrazole-3-carboxamide] | 180 | 850 | inhibition at 6 µM (full-length human RORγt; 6 μM compound concentration): 93% |
| CCCn1nc(C(=O)NC[C@H]2CC[C@H](S(C)(=O)=O)CC2)c(Cl)c1-c1ccc(N[C@H](C)C(F)(F)F)cc1OC [Example 30, 4-Chloro-5-(2-methoxy-4-(((R)-1,1,1-trifluoropropan-2-yl)amino)phenyl)-N-(((1r,4R)-4-(methylsulfonyl)cyclohexyl)methyl)-1-propyl-1H-pyrazole-3-carboxamide] | 2.1 | 27 | inhibition at 2 µM (full-length human RORγt; 2 μM compound concentration): 104% |
| CCn1nc(C(=O)NC[C@H]2CC[C@H](S(C)(=O)=O)CC2)c(C#N)c1-c1ccc(CC(C)(C)C(F)(F)F)cc1OC [Example 127, 4-Cyano-1-ethyl-5-(2-methoxy-4-(3,3,3-trifluoro-2,2-dimethylpropyl)phenyl)-N-(((1r,4r)-4-(methylsulfonyl)cyclohexyl)methyl)-1H-pyrazole-3-carboxamide] | 3.7 | 20 | inhibition at 0.67 µM (full-length human RORγt): 94% |
| CCn1nc(C(=O)NC[C@]2(C#N)CC[C@H](S(C)(=O)=O)CC2)c(Cl)c1-c1ccc(N[C@H](C)C(F)(F)F)cc1OC [Example 33, 4-Chloro-N-(((1r,4R)-1-cyano-4-(methylsulfonyl)cyclohexyl)methyl)-1-ethyl-5-(2-methoxy-4-(((R)-1,1,1-trifluoropropan-2-yl)amino)phenyl)-1H-pyrazole-3-carboxamide] | 450 | 1100 | inhibition at 6 µM (full-length human RORγt; 6 μM compound concentration): 88% |
| CCn1nc(C(=O)NC[C@H]2CC[C@H](S(C)(=O)=O)CC2)c(Cl)c1-c1ccc(C2(O)CCC(C(F)(F)F)CC2)cc1OC(F)F (single isomer, unassigned) [Example 115, 4-Chloro-5-(2-(difluoromethoxy)-4-((1r*,4r*)-1-hydroxy-4-(trifluoromethyl)cyclohexyl)phenyl)-1-ethyl-N-(((1r,4r)-4-(methylsulfonyl)cyclohexyl)methyl)-1H-pyrazole-3-carboxamide] |  | 16 | Kd ([1]; ThermoFluor® Assay, Kd): 32 nM; inhibition at 3 µM (full-length human RORγt): 89% |
| CCc1cc(N[C@H](C)C(F)(F)F)ccc1-c1c(Cl)c(C(=O)NC[C@H]2CC[C@H](S(C)(=O)=O)CC2)nn1CC [Example 206, 4-Chloro-1-ethyl-5-(2-ethyl-4-(((R)-1,1,1-trifluoropropan-2-yl)amino)phenyl)-N-(((1r,4R)-4-(methylsulfonyl)cyclohexyl)methyl)-1H-pyrazole-3-carboxamide] | 7 | 31 | inhibition at 2 µM (full-length human RORγt; 2 μM compound concentration): 100% |
| CCn1nc(C(=O)NC[C@H]2CC[C@H](S(C)(=O)=O)CC2)c(Cl)c1-c1ccc(CC(C)(C)C(F)(F)F)cc1C [Example 182, 4-Chloro-1-ethyl-5-(2-methyl-4-(3,3,3-trifluoro-2,2-dimethylpropyl)phenyl)-N-(((1r,4r)-4-(methylsulfonyl)cyclohexyl)methyl)-1H-pyrazole-3-carboxamide] | 1 | 19 | inhibition at […] (full-length human RORγt): 81% |
| CCn1nc(C(=O)NC[C@]2(O)CC[C@@H](S(C)(=O)=O)CC2)c(C)c1-c1ccc(CCCC(F)(F)F)cc1OC [Example 83, 1-Ethyl-N-(((1s,4s)-1-hydroxy-4-(methylsulfonyl)cyclohexyl)methyl)-5-(2-methoxy-4-(4,4,4-trifluorobutyl)phenyl)-4-methyl-1H-pyrazole-3-carboxamide] | 11 | 33 | inhibition at 0.67 µM (full-length human RORγt): 87% |
| CCn1nc(C(=O)NC[C@H]2CC[C@H](S(C)(=O)=O)CC2)c(Cl)c1-c1ccc(CCCC(F)(F)F)cc1OC(F)F [Example 76, 4-Chloro-5-(2-(difluoromethoxy)-4-(4,4,4-trifluorobutyl)phenyl)-1-ethyl-N-(((1r,4r)-4-(methylsulfonyl)cyclohexyl)methyl)-1H-pyrazole-3-carboxamide] | 0.28 | 2.1 | inhibition at […] (full-length human RORγt): 103% |
| CCn1nc(C(=O)NC[C@H]2CC[C@H](S(C)(=O)=O)CC2)c(Cl)c1-c1ccc(OCC2(C)CC2)cc1OC [Example 215, 4-Chloro-1-ethyl-5-(2-methoxy-4-((1-methylcyclopropyl)methoxy)phenyl)-N-(((1r,4r)-4-(methylsulfonyl)cyclohexyl)methyl)-1H-pyrazole-3-carboxamide] | 6.6 | 56 | inhibition at 2 µM (full-length human RORγt; 2 μM compound concentration): 80% |
| CCn1nc(C(=O)NC[C@H]2CC[C@@H](S(C)(=O)=O)CN2)c(Cl)c1-c1ccc(CC(C)(C)C(F)(F)F)cc1OC(F)F (stereo in doubt) [Example 13, 4-Chloro-5-(2-(difluoromethoxy)-4-(3,3,3-trifluoro-2,2-dimethylpropyl)phenyl)-1-ethyl-N-(((2R*,5R*)-5-(methylsulfonyl)piperidin-2-yl)methyl)-1H-pyrazole-3-carboxamide] |  | 190 | Kd ([1]; ThermoFluor® Assay, Kd): 110 nM; inhibition at 3 µM (full-length human RORγt): 90% |
| CCn1nc(C(=O)NC[C@]2(O)CC[C@@H](S(N)(=O)=O)CC2)c(Cl)c1-c1ccc(C[C@H](C)C(F)(F)F)cc1OC(F)F (single isomer, unassigned) [Example 60, 4-Chloro-5-(2-(difluoromethoxy)-4-((S*)-3,3,3-trifluoro-2-methylpropyl)phenyl)-1-ethyl-N-(((1s,4R)-1-hydroxy-4-sulfamoylcyclohexyl)methyl)-1H-pyrazole-3-carboxamide] |  | 38 | Kd ([1]; ThermoFluor® Assay, Kd): 1.9 nM; inhibition at 3 µM (full-length human RORγt): 114% |
| CCn1nc(C(=O)NC[C@H]2CC[C@H](S(C)(=O)=O)CC2)c(Cl)c1-c1ccc(CCC(F)(F)F)cc1OC(F)(F)F [Example 189, 4-Chloro-1-ethyl-N-(((1r,4r)-4-(methylsulfonyl)cyclohexyl)methyl)-5-(2-(trifluoromethoxy)-4-(3,3,3-trifluoropropyl)phenyl)-1H-pyrazole-3-carboxamide] | 4.8 | > 2000 | inhibition at 2 µM (full-length human RORγt): 47% |
| CCCn1nc(C(=O)NC[C@]2(O)CC[C@@H](S(C)(=O)=O)CC2)c(Cl)c1-c1ccc(N[C@H](C)C(F)(F)F)cc1OC [Example 31, 4-Chloro-N-(((1s,4S)-1-hydroxy-4-(methylsulfonyl)cyclohexyl)methyl)-5-(2-methoxy-4-(((R)-1,1,1-trifluoropropan-2-yl)amino)phenyl)-1-propyl-1H-pyrazole-3-carboxamide] | 7.2 | 41 | inhibition at 6 µM (full-length human RORγt): 105% |
| COCCn1nc(C(=O)NC[C@]2(O)CC[C@@H](S(C)(=O)=O)CC2)c(Cl)c1-c1ccc(CC(C)(C)C(F)(F)F)cc1OC(F)F [Example 149, 4-Chloro-5-(2-(difluoromethoxy)-4-(3,3,3-trifluoro-2,2-dimethylpropyl)phenyl)-N-(((1s,4s)-1-hydroxy-4-(methylsulfonyl)cyclohexyl)methyl)-1-(2-methoxyethyl)-1H-pyrazole-3-carboxamide] | 0.83 | 6 | inhibition at 2 µM (full-length human RORγt; 2 μM compound concentration): 99% |
| CCn1nc(C(=O)NC[C@H]2CC[C@H](S(C)(=O)=O)CC2)c(Cl)c1-c1ccc(N[C@H](C)C(F)(F)F)cc1C(C)C [Example 204, 4-Chloro-1-ethyl-5-(2-isopropyl-4-(((R)-1,1,1-trifluoropropan-2-yl)amino)phenyl)-N-(((1r,4R)-4-(methylsulfonyl)cyclohexyl)methyl)-1H-pyrazole-3-carboxamide] | 13 | 53 | inhibition at 2 µM (full-length human RORγt; 2 μM compound concentration): 102% |
| CCn1nc(C(=O)NC[C@@H]2CC[C@@H](S(C)(=O)=O)CN2)c(Cl)c1-c1ccc(CC(C)(C)C(F)(F)F)cc1OC(F)F (stereo in doubt) [Example 10, 4-Chloro-5-(2-(difluoromethoxy)-4-(3,3,3-trifluoro-2,2-dimethylpropyl)phenyl)-1-ethyl-N-(((2S*,5R*)-5-(methylsulfonyl)piperidin-2-yl)methyl)-1H-pyrazole-3-carboxamide hydrobromide] |  | 25 | Kd ([1]; ThermoFluor® Assay, Kd): 2.6 nM; inhibition at 3 µM (full-length human RORγt): 103% |

From US10975037B2 (priority 2018, dated 2021)
